Active and inactive are the calls of the source. The calls are words filed in the database; no cut-off is given here.
Legend:
Plutella xylostella [1] = test: Insecticidal activity against third-instar of Plutella xylostella (diamondback moth) on cabbage leaves assessed as mortality after 5 days; assay type: functional, organism-based
Plutella xylostella [2] = test: Reduction of oviposition in adult Plutella xylostella (diamondback moth) in cabbage leaves assessed as number of egg oviposited after 24 hr by two choice test; assay type: functional, organism-based
Plutella xylostella [3] = test: Reduction of oviposition in adult Plutella xylostella (diamondback moth) in aluminium foil assessed as number of egg oviposited after 24 hr by two choice test; assay type: functional, organism-based
Plutella xylostella [4] = test: Reduction of oviposition in adult Plutella xylostella (diamondback moth) in cabbage leaves assessed as number of egg oviposited after 24 hr by no choice test; assay type: functional, organism-based
Plutella xylostella [5] = test: Reduction of oviposition in adult Plutella xylostella (diamondback moth) in aluminium foil assessed as number of egg oviposited after 24 hr by no choice test; assay type: functional, organism-based
Plutella xylostella [6] = test: Insecticidal activity against larvae of Plutella xylostella (diamondback moth) on cabbage leaves after 5 days; assay type: functional, organism-based
Plutella xylostella [7] = test: Antifeedant activity against larvae of Plutella xylostella (diamondback moth) on cabbage leaves assessed as length of larvae after 5 days; assay type: functional
Plutella xylostella [8] = test: Antifeedant activity against larvae of Plutella xylostella (diamondback moth) on cabbage leaves assessed as weight of larvae after 5 days; assay type: functional
Plutella xylostella [9] = test: Insecticidal activity against Plutella xylostella (diamondback moth) eggs on cabbage leaves assessed as eggs developed to neonates after 5 days relative to control; assay type: functional
Plutella xylostella [10] = test: Insecticidal activity against third-instar of Plutella xylostella (diamondback moth) on cabbage leaves assessed as survival after 3 days; assay type: functional
Plutella xylostella [11] = test: Antifeedant activity against larvae of Plutella xylostella (diamondback moth) on cabbage leaves assessed as diameter of larvae after 5 days; assay type: functional
Plutella xylostella [12] = test: Insecticidal activity against neonates of Plutella xylostella (diamondback moth) on cabbage leaves assessed as survival after 5 days; assay type: functional
Plutella xylostella [13] = test: Antifeedant activity against fourth-instar of Plutella xylostella (diamondback moth) on cabbage leaves assessed as leaf disks damage; assay type: functional
Plutella xylostella [14] = test: Antifeedant activity against neonates of Plutella xylostella (diamondback moth) on cabbage leaves assessed as leaf disks damage; assay type: functional
Plutella xylostella [15] = test: Antifeedant activity against second-instar of Plutella xylostella (diamondback moth) on cabbage leaves assessed as leaf disks damage; assay type: functional
Plutella xylostella [16] = test: Antifeedant activity against third-instar of Plutella xylostella (diamondback moth) on cabbage leaves assessed as leaf disks damage; assay type: functional

C/C=C(\C)C(=O)O[C@H]1C[C@@H](OC(C)=O)[C@@]2(C(=O)OC)CO[C@H]3[C@@H](O)[C@@](C)([C@]45O[C@@]4(C)[C@@H]4C[C@H]5O[C@@H]5OC=C[C@@]54O)[C@H]4[C@]1(CO[C@]4(O)C(=O)OC)[C@@H]32 (stereo in doubt; form 3)
Activity (Plutella xylostella [1]): Active | Activity (Plutella xylostella [2]): inactive | Activity (Plutella xylostella [3]): Active | Activity (Plutella xylostella [4]): inactive | Activity (Plutella xylostella [5]): inactive | Activity (Plutella xylostella [6]): Active

C/C=C(\C)C(=O)O[C@H]1C[C@@H](OC(C)=O)[C@@]2(C(=O)OC)CO[C@H]3[C@@H](O)[C@@](C)([C@]45O[C@@]4(C)[C@@H]4C[C@H]5O[C@@H]5OC=C[C@@]54O)[C@H]4[C@]1(CO[C@]4(O)C(=O)OC)[C@@H]32 (stereo in doubt; form 3) [AZADIRACHTIN A]
Activity (Plutella xylostella [7]): 14.8 mm | Activity (Plutella xylostella [8]): 0.016 mg | Activity (Plutella xylostella [9]): 61.6% | Survival (Plutella xylostella [10]): <60% | Activity (Plutella xylostella [11]): 2.2 mm | Survival (Plutella xylostella [12]): 50%

C/C=C(\C)C(=O)O[C@H]1C[C@@H](OC(C)=O)[C@@]2(C(=O)OC)CO[C@H]3[C@@H](O)[C@@](C)([C@]45O[C@@]4(C)[C@@H]4C[C@H]5O[C@@H]5OC=C[C@@]54O)[C@H]4[C@]1(CO[C@]4(O)C(=O)OC)[C@@H]32 (stereo in doubt; form 2) [AZADIRACHTIN A]
Activity (Plutella xylostella [7]): 14.7 mm | Activity (Plutella xylostella [8]): 0.012 mg | Activity (Plutella xylostella [9]): 66.2% | Activity (Plutella xylostella [11]): 2.5 mm

C/C=C(\C)C(=O)O[C@H]1C[C@@H](OC(C)=O)[C@@]2(C(=O)OC)CO[C@H]3[C@@H](O)[C@@](C)([C@]45O[C@@]4(C)[C@@H]4C[C@H]5O[C@@H]5OC=C[C@@]54O)[C@H]4[C@]1(CO[C@]4(O)C(=O)OC)[C@@H]32 (stereo in doubt; form 1) [AZADIRACHTIN A]
Activity (Plutella xylostella [7]): 13.5 mm | Activity (Plutella xylostella [13]): 10.1% | Activity (Plutella xylostella [8]): 0.013 mg | Activity (Plutella xylostella [9]): 75.2% | Activity (Plutella xylostella [11]): 2 mm | Activity (Plutella xylostella [14]): <=2% | Activity (Plutella xylostella [15]): 2.1% | Activity (Plutella xylostella [16]): 5.1%

C/C=C(\C)C(=O)O[C@H]1C[C@@H](OC(C)=O)[C@@]2(C(=O)OC)CO[C@H]3[C@@H](O)[C@@](C)([C@]45O[C@@]4(C)[C@@H]4C[C@H]5O[C@@H]5OC=C[C@@]54O)[C@H]4[C@]1(CO[C@]4(O)C(=O)OC)[C@@H]32 (stereo in doubt; form 1)
Activity (Plutella xylostella [1]): Active | Activity (Plutella xylostella [2]): inactive | Activity (Plutella xylostella [3]): Active | Activity (Plutella xylostella [4]): inactive | Activity (Plutella xylostella [5]): inactive | Activity (Plutella xylostella [6]): Active

C/C=C(\C)C(=O)O[C@H]1C[C@@H](OC(C)=O)[C@@]2(C(=O)OC)CO[C@H]3[C@@H](O)[C@@](C)([C@]45O[C@@]4(C)[C@@H]4C[C@H]5O[C@@H]5OC=C[C@@]54O)[C@H]4[C@]1(CO[C@]4(O)C(=O)OC)[C@@H]32 (stereo in doubt; form 2)
Activity (Plutella xylostella [1]): Active | Activity (Plutella xylostella [2]): inactive | Activity (Plutella xylostella [3]): Active | Activity (Plutella xylostella [4]): inactive | Activity (Plutella xylostella [5]): inactive | Activity (Plutella xylostella [6]): Active
